Assay results: patent US10206394B2, “Herbicidal compounds” (Syngenta Participations AG, priority 2014, dated 2019)
Like-named read-outs stand apart in the source and are kept apart here.

Legend:
Assay in all cases: Glasshouse assay for herbicidal activity (pre- and post-emergence), percentage phytotoxicity
Type in all cases: in vivo
[1] = tested on: Echinochloa crus-galli (ECHCG); details: Echinochloa crus-galli
How it was run: (§1)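 Visually rated damage, 0–100%. PRE spray 1 d after sowing, scored 20 DAA; POST spray ~12 d, scored 15 DAA. Glasshouse at 65% humidity, 16 h day.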

Avena fatua (AVEFA) = details: Avena fatua
How it was run: as §1

[2] = tested on: Alopecurus myosuroides (ALOMY); details: Alopecurus myosuroides
How it was run: as §1

Lolium perenne (LOLPE) = details: Lolium perenne
How it was run: as §1

[3] = post-emergence, 360 h, POST-emergence, rate 250 g/ha, visual score 15 DAA (100%=total damage, 0%=no damage), read-out: Post-emergence herbicidal activity (percentage phytotoxicity) ECHCG POST
[4] = pre-emergence, 480 h, PRE-emergence, rate 250 g/ha, visual score 20 DAA (100%=total damage, 0%=no damage), read-out: Pre-emergence herbicidal activity (percentage phytotoxicity) ECHCG PRE
[5] = post-emergence, 360 h, POST-emergence, rate 250 g/ha, visual score 15 DAA (100%=total damage, 0%=no damage), read-out: Post-emergence herbicidal activity (percentage phytotoxicity) AVEFA POST
[6] = pre-emergence, 480 h, PRE-emergence, rate 250 g/ha, visual score 20 DAA (100%=total damage, 0%=no damage), read-out: Pre-emergence herbicidal activity (percentage phytotoxicity) AVEFA PRE
[7] = post-emergence, 360 h, POST-emergence, rate 250 g/ha, visual score 15 DAA (100%=total damage, 0%=no damage), read-out: Post-emergence herbicidal activity (percentage phytotoxicity) ALOMY POST
[8] = pre-emergence, 480 h, PRE-emergence, rate 250 g/ha, visual score 20 DAA (100%=total damage, 0%=no damage), read-out: Pre-emergence herbicidal activity (percentage phytotoxicity) ALOMY PRE
[9] = post-emergence, 360 h, POST-emergence, rate 250 g/ha, visual score 15 DAA (100%=total damage, 0%=no damage), read-out: Post-emergence herbicidal activity (percentage phytotoxicity) LOLPE POST
[10] = pre-emergence, 480 h, PRE-emergence, rate 250 g/ha, visual score 20 DAA (100%=total damage, 0%=no damage), read-out: Pre-emergence herbicidal activity (percentage phytotoxicity) LOLPE PRE
[11] = post-emergence, 360 h, Rate 250 g/ha, post-emergence, visual assessment 15 DAA, 100%=total damage, 0%=no damage, read-out: Post-emergence herbicidal activity (percentage phytotoxicity) ECHCG POST
[12] = pre-emergence, 480 h, Rate 250 g/ha, pre-emergence, visual assessment 20 DAA, 100%=total damage, 0%=no damage, read-out: Pre-emergence herbicidal activity (percentage phytotoxicity) ECHCG PRE
[13] = post-emergence, 360 h, Rate 250 g/ha, post-emergence, visual assessment 15 DAA, 100%=total damage, 0%=no damage, read-out: Post-emergence herbicidal activity (percentage phytotoxicity) AVEFA POST
[14] = pre-emergence, 480 h, Rate 250 g/ha, pre-emergence, visual assessment 20 DAA, 100%=total damage, 0%=no damage, read-out: Pre-emergence herbicidal activity (percentage phytotoxicity) AVEFA PRE
[15] = post-emergence, 360 h, Rate 250 g/ha, post-emergence, visual assessment 15 DAA, 100%=total damage, 0%=no damage, read-out: Post-emergence herbicidal activity (percentage phytotoxicity) ALOMY POST
[16] = pre-emergence, 480 h, Rate 250 g/ha, pre-emergence, visual assessment 20 DAA, 100%=total damage, 0%=no damage, read-out: Pre-emergence herbicidal activity (percentage phytotoxicity) ALOMY PRE
[17] = post-emergence, 360 h, Rate 250 g/ha, post-emergence, visual assessment 15 DAA, 100%=total damage, 0%=no damage, read-out: Post-emergence herbicidal activity (percentage phytotoxicity) LOLPE POST
[18] = pre-emergence, 480 h, Rate 250 g/ha, pre-emergence, visual assessment 20 DAA, 100%=total damage, 0%=no damage, read-out: Pre-emergence herbicidal activity (percentage phytotoxicity) LOLPE PRE

SMILES	pest or weed control at 250 g/ha [1, 3] [%]	pest or weed control at 250 g/ha [1, 4] [%]	pest or weed control at 250 g/ha (Avena fatua (AVEFA); [5]) [%]	pest or weed control at 250 g/ha (Avena fatua (AVEFA); [6]) [%]	pest or weed control at 250 g/ha [2, 7] [%]	pest or weed control at 250 g/ha [2, 8] [%]	pest or weed control at 250 g/ha (Lolium perenne (LOLPE); [9]) [%]	pest or weed control at 250 g/ha (Lolium perenne (LOLPE); [10]) [%]	pest or weed control at 250 g/ha [1, 11] [%]	pest or weed control at 250 g/ha [1, 12] [%]	pest or weed control at 250 g/ha (Avena fatua (AVEFA); [13]) [%]	pest or weed control at 250 g/ha (Avena fatua (AVEFA); [14]) [%]	pest or weed control at 250 g/ha [2, 15] [%]	pest or weed control at 250 g/ha [2, 16] [%]	pest or weed control at 250 g/ha (Lolium perenne (LOLPE); [17]) [%]	pest or weed control at 250 g/ha (Lolium perenne (LOLPE); [18]) [%]	further results
CCNC(=O)CC1CC(=O)C(c2c(C)cc(-n3cc(Cl)cn3)cc2C)C1=O (stereo not drawn) [Compound B307]	100	100	100	100	90	100	90	100									
Cc1cc(-c2ccc(Cl)cc2)cc(C)c1C1C(=O)CC(CC(=O)NC(C)(C)C#N)C1=O (stereo not drawn) [Compound B378]									100	90	100	90	80	70	70	80	
Cc1cc(-n2cc(Cl)cn2)cc(C)c1C1C(=O)CC(CC(=O)NCc2cccc(Cl)c2)C1=O (stereo not drawn) [Compound B262]	100	80	90	40	70	60	70	60									
C=C(C)CNC(=O)CC1CC(=O)C(c2c(C)cc(OCC(F)(F)F)cc2C)C1=O (stereo not drawn) [Compound B147]																	pest or weed control at 250 g/ha ([1]; post-emergence, 360 h, 250 g/ha, post-emergence, 15 DAA, visual assessment (100%=total damage, 0%=no damage), read-out: Post-emergence herbicidal activity (percentage phytotoxicity) ECHCG POST): 90%; pest or weed control at 250 g/ha ([1]; pre-emergence, 480 h, 250 g/ha, pre-emergence, 20 DAA, visual assessment (100%=total damage, 0%=no damage), read-out: Pre-emergence herbicidal activity (percentage phytotoxicity) ECHCG PRE): 100%; pest or weed control at 250 g/ha (Avena fatua (AVEFA); post-emergence, 360 h, 250 g/ha, post-emergence, 15 DAA, visual assessment (100%=total damage, 0%=no damage), read-out: Post-emergence herbicidal activity (percentage phytotoxicity) AVEFA POST): 90%; pest or weed control at 250 g/ha (Avena fatua (AVEFA); pre-emergence, 480 h, 250 g/ha, pre-emergence, 20 DAA, visual assessment (100%=total damage, 0%=no damage), read-out: Pre-emergence herbicidal activity (percentage phytotoxicity) AVEFA PRE): 50%; pest or weed control at 250 g/ha ([2]; post-emergence, 360 h, 250 g/ha, post-emergence, 15 DAA, visual assessment (100%=total damage, 0%=no damage), read-out: Post-emergence herbicidal activity (percentage phytotoxicity) ALOMY POST): 80%; pest or weed control at 250 g/ha ([2]; pre-emergence, 480 h, 250 g/ha, pre-emergence, 20 DAA, visual assessment (100%=total damage, 0%=no damage), read-out: Pre-emergence herbicidal activity (percentage phytotoxicity) ALOMY PRE): 90%; pest or weed control at 250 g/ha (Lolium perenne (LOLPE); post-emergence, 360 h, 250 g/ha, post-emergence, 15 DAA, visual assessment (100%=total damage, 0%=no damage), read-out: Post-emergence herbicidal activity (percentage phytotoxicity) LOLPE POST): 60%; pest or weed control at 250 g/ha (Lolium perenne (LOLPE); pre-emergence, 480 h, 250 g/ha, pre-emergence, 20 DAA, visual assessment (100%=total damage, 0%=no damage), read-out: Pre-emergence herbicidal activity (percentage phytotoxicity) LOLPE PRE): 90%
Cc1cc(C)c(C2=C(OC(=O)C(C)(C)C)CC(CC(=O)NC3(C)COC3)C2=O)c(C)c1 (stereo not drawn) [Compound P15]									80	100	80	40	90	70	80	80	
CC#Cc1cc(C)c(C2C(=O)CC(CC(=O)NCC#N)C2=O)c(C)c1 (stereo not drawn) [Compound A78]																	pest or weed control at 250 g/ha ([1]; post-emergence, 360 h, Rate 250 g/ha, post-emergence, assessed visually 15 DAA, 100%=total damage, 0%=no damage, read-out: Post-emergence herbicidal activity (percentage phytotoxicity) ECHCG POST): 100%; pest or weed control at 250 g/ha ([1]; pre-emergence, 480 h, Rate 250 g/ha, pre-emergence, assessed visually 20 DAA, 100%=total damage, 0%=no damage, read-out: Pre-emergence herbicidal activity (percentage phytotoxicity) ECHCG PRE): 60%; pest or weed control at 250 g/ha (Avena fatua (AVEFA); post-emergence, 360 h, Rate 250 g/ha, post-emergence, assessed visually 15 DAA, 100%=total damage, 0%=no damage, read-out: Post-emergence herbicidal activity (percentage phytotoxicity) AVEFA POST): 40%; pest or weed control at 250 g/ha (Avena fatua (AVEFA); pre-emergence, 480 h, Rate 250 g/ha, pre-emergence, assessed visually 20 DAA, 100%=total damage, 0%=no damage, read-out: Pre-emergence herbicidal activity (percentage phytotoxicity) AVEFA PRE): 30%; pest or weed control at 250 g/ha ([2]; post-emergence, 360 h, Rate 250 g/ha, post-emergence, assessed visually 15 DAA, 100%=total damage, 0%=no damage, read-out: Post-emergence herbicidal activity (percentage phytotoxicity) ALOMY POST): 80%; pest or weed control at 250 g/ha ([2]; pre-emergence, 480 h, Rate 250 g/ha, pre-emergence, assessed visually 20 DAA, 100%=total damage, 0%=no damage, read-out: Pre-emergence herbicidal activity (percentage phytotoxicity) ALOMY PRE): 10%; pest or weed control at 250 g/ha (Lolium perenne (LOLPE); post-emergence, 360 h, Rate 250 g/ha, post-emergence, assessed visually 15 DAA, 100%=total damage, 0%=no damage, read-out: Post-emergence herbicidal activity (percentage phytotoxicity) LOLPE POST): 30%; pest or weed control at 250 g/ha (Lolium perenne (LOLPE); pre-emergence, 480 h, Rate 250 g/ha, pre-emergence, assessed visually 20 DAA, 100%=total damage, 0%=no damage, read-out: Pre-emergence herbicidal activity (percentage phytotoxicity) LOLPE PRE): 20%
